Patent publication US20260272899A1 (Bayer Aktiengesellschaft, priority 2024, published 2026)

In the case of `CCOc1ncc(C)c2c1[C@H](c1ccc(C#N)cc1OC)C(C(N)=O)=C(C)N2` [finerenone, (4S)-4-(4-cyano-2-methoxyphenyl)-5-ethoxy-2,8-dimethyl-1,4-dihydro-1,6-naphthyridine-3-carboxamide], the “Sudden death, number of subjects” value (AE of death or leading to death by preferred term, finerenone n = 2,993) is reported as 20, the “All-cause death, Rate (per 100 py)” value (No SGLT2i use at baseline, column headed Finerenone n = 2,610) is reported as 7.0 per 100 py and the “Total worsening heart failure events and death from cardiovascular causes: Rate per 100 patient-yr” value (finerenone N = 3,003) is reported as 14.9 per 100 patient-yr.
